Structures are written as SMILES.

T1 sequence (P05067 672-713): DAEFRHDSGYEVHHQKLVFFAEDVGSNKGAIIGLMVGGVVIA

The assay has as its target T1, A®1-42 peptide (Homo sapiens, UniProt P05067).
T1 construct: A®1-42 lyophilized powder (Bachem) was reconstituted in hexafluoroisopropanol (HFIP) to 1 mM; purchased Bachem
As to the kind of experiment: Thioflavin T spectrofluorescence assay (ThT-assay), inhibition of A®1-42 aggregation. It counts as biochemical. Particulars: 330 µM small molecule, 33 µM A®1-42 (molar ratio 10:1), 10 µM ThT, 12.8% DMSO in PBS, 24 hrs at 37° C.; mean +/- SD of two independent experiments. As for the experimental part: The capacity of the compounds of the invention to inhibit the aggregation of A®1-42 peptide was determined by using the thioflavin T spectrofluorescence assay (ThT-assay) as described below.
A®1-42 lyophilized powder (Bachem) was reconstituted in hexafluoroisopropanol (HFIP) to 1 mM. The peptide solution was sonicated for 15 min at room temperature, agitated overnight, and aliquots were placed into non-siliconized microcentrifuge tubes. The HFIP was then evaporated under a stream of argon. The resulting peptide film was dried under vacuum for 10 min, tightly sealed and stored at −80° C. until used.
An A®1-42 peptide film was dissolved in DMSO to reach 400 ? M. An assay solution in PBS was prepared in non-siliconized incubation tubes to reach the following concentrations: 330 ? M small molecule, 33 ? M A®1-42, 10 ? M thioflavin T (ThT), and 12.8% DMSO. Therefore, the final molar ratio of small molecule to A®1-42 was 10:1. A positive control without a small molecule was prepared to measure maximum RFU. A negative control without A®1-42 was prepared for each small molecule. The 3-amino-pyrazole trimer (Rzepecki et. al. Synthesis 2003, 1815) was tested as a reference compound in all assays to ascertain reproducibility between independent experiments. The solutions were then incubated for 24 hrs at 37° C., and the spectrofluorescence (relative fluorescence units; RFU) read in six replicates in black 384-well assay plates (Perkin-Elmer) on a Perkin-Elmer FluoroCount spectrofluorometer. Inhibition of aggregation is expressed as mean % inhibition±1 standard deviation (SD) according to the following equation: […]
In general, inhibition refers to the drop in the measured response relative to a control, in per cent. In the case of `c1ncc(N2CCNCC2)cc1N1CCNCC1` [Example 5], the inhibition at 330 µM was found to be 60.1 ± 7.8%.
For the molecule `FC(F)(F)c1ccc(Nc2cncc(NCC3CCOCC3)c2)cc1` [Example 20], the inhibition at 330 µM was found to be 51.7 ± 0.3%.
Regarding `Cn1c2c(c3ccc(Nc4cncc(NCC5(F)CCNCC5)c4)nc31)CCCC2` [Example 17], the inhibition at 330 µM came out at 96.5 ± 1.4%.
As to `FC1(CNc2cncc(Nc3ccc4c5c([nH]c4n3)CCCC5)c2)CCNCC1` [Example 15], the inhibition at 330 µM is 95.7 ± 0.4%.
Regarding `c1ncc(Nc2ccc3c4c([nH]c3n2)CCCC4)cc1NCC1CCNCC1` [Example 13], the inhibition at 330 µM is 100 ± 4.4%.
Regarding `FC1(CNc2cncc(Nc3ccc(C(F)(F)F)cc3)c2)CCNCC1` [Example 16], the inhibition at 330 µM amounted to 62.9 ± 8.2%.
Take `c1ncc(Nc2ccc3c(C4CCNCC4)c[nH]c3c2)cc1NCC1CCNCC1` [Example 12]: the inhibition at 330 µM was 95.4 ± 0.8%.
`c1ncc(NCC2CCNCC2)cc1NCC1CCNCC1` [Example 8]: the inhibition at 330 µM was determined as 69.5 ± 1.4%.
`c1ncc(N2CCOCC2)cc1N1CCOCC1` [Example 2]: the inhibition at 330 µM was 15.7 ± 6.1%.
As for `c1cc2c(C3CCNCC3)c[nH]c2cc1Nc1cncc(N2CCOCC2)c1` [Example 4], the inhibition at 330 µM amounted to 53.3 ± 7.6%.
On to `CN1CCC(CNc2cncc(Nc3ccc(C(F)(F)F)nc3)c2)CC1` [Example 18], for which the inhibition at 330 µM was 29.5 ± 0.1%.
With `Fc1cc(F)cc(Nc2cncc(N3CCNCC3)c2)c1` [Example 6], the inhibition at 330 µM was found to be 62.5 ± 7.4%.
As for `FC(F)(F)c1ccc(Nc2cncc(N3CCNCC3)c2)cn1` [Example 7], the inhibition at 330 µM came to 28.3 ± 3.2%.
With `FC(F)(F)c1ccc(Nc2cncc(NCC3CCNCC3)c2)cc1` [Example 10], the inhibition at 330 µM stood at 73.9 ± 4.7%.
Consider `FC(F)(F)c1ccc(Nc2cncc(NCC3CCNCC3)c2)cn1` [Example 1], for which the inhibition at 330 µM was found to be 38 ± 0.6%.
Consider `Fc1cc(F)cc(Nc2cncc(NCC3CCNCC3)c2)c1` [Example 9], for which the inhibition at 330 µM was 55 ± 7.4%.
In the case of `FC1(CNc2cncc(Nc3ccc(C(F)(F)F)nc3)c2)CCNCC1` [Example 14], the inhibition at 330 µM was 86.2 ± 4.7%.
On to `c1cc2ccc(Nc3cncc(NCC4CCNCC4)c3)nc2[nH]1` [Example 11], for which the inhibition at 330 µM came out at 62.7 ± 2.1%.
Consider `FC(F)(F)c1ccc(Nc2cncc(NCC3CCOCC3)c2)cn1` [Example 19], for which the inhibition at 330 µM amounted to 40.2 ± 6.3%.
In the case of `FC(F)(F)c1ccc(Nc2cncc(N3CCOCC3)c2)cn1` [Example 3], the inhibition at 330 µM is 36.9 ± 17.2%.

Values taken from US20110256064A1, “Novel Compounds for the Treatment of Diseases Associated with Amyloid or Amyloid-like Proteins” (AC Immune, S.A., priority 2010, published 2011).
